pIC50: −log10 of the molar value.

The nature of this assay: Inhibition of Saccharomyces cerevisiae alpha-glucosidase assessed as reduction in PNP formation using alpha-PNPG as substrate incubated for 30 mins by microplate reader assay.
Consider `O=C(CCCCc1ccccc1)c1ccc(O)cc1`, for which the negative-log IC50 (pIC50) (commonly −log10 of the IC50, conventionally taken in molar units) is 3.90.
On to `O=C(CC[C@H](O)C(=O)c1ccc(O)cc1)c1ccccc1`, for which the pIC50 was 3.86.
Consider `CC1=C2[C@@H](O)[C@@]3(C)CC(=O)[C@@]4(C)[C@]2(CC1=O)C[C@]43C`, for which the negative-log IC50 (pIC50) was 3.80.
Take `CC1=C2C[C@H](C(C)C)C[C@@H]3O[C@@]2(CC1=O)[C@@]3(C)O`: the pIC50 was 3.99.
For `O=C(/C=C/CCc1ccccc1)c1ccc(O)cc1` the value was 4.36; for `CO[C@@H](CCc1ccccc1)CC(=O)c1ccccc1`, 3.84.
As to `C[C@H]1O[C@H](O[C@H]2[C@H](O)[C@@H](O)[C@@H](O[C@H]3[C@H](O)[C@@H](O)C(O)O[C@@H]3CO)O[C@@H]2CO)[C@H](O)[C@@H](O)[C@@H]1N[C@H]1C=C(CO)[C@@H](O)[C@H](O)[C@H]1O` (some centres not stated) [ACARBOSE], the pIC50 was 3.24.
